Our source for the mortality and pest or weed control values is patent publication US20230058623A1, “NOVEL HETEROARYL-TRIAZOLE COMPOUNDS AS PESTICIDES” (Bayer Aktiengesellschaft, priority 2019, published 2023).

The structures appear in SMILES notation.

Holding throughout (assay type): in vivo
For assay [1], the system named is green peach aphid (Myzus persicae). Put plainly: Myzus persicae oral test. The conditions noted are these: 120 h, read-out: activity (mortality). How it is done: Solvent: 100 parts by weight acetone
To produce a suitable preparation of active compound, 1 part by weight of active compound is mixed with the stated amount of solvent, and the concentrate is diluted with water to the desired concentration.
50 μL compound solution is filled in microtiter plates and 150 μL IPL41 insect medium (33%+15% sugar) is added to obtain a total volume of 200 μL per well. Afterwards the plates are sealed with parafilm through which a mixed population of the green peach aphid (Myzus persicae) can suck on the compound preparation.
After 5 days mortality in % is determined. 100% means all aphids have been killed and 0% means none of the aphids have been killed.

Assay [2] relates to larvae of the banded cucumber beetle (Diabrotica balteata). Put plainly: Diabrotica balteata spray test. The conditions noted are these: 168 h, after 7 days, wheat seeds, read-out: activity (efficacy: seedlings grown); for pest or weed control at 160 µg/disc, 500 g/ha: application rate 500 g/ha (=160 μg/well); for pest or weed control at 32 µg/disc, 100 g/ha: application rate 100 g/ha (=32 μg/well). How it is done: Diabrotica balteata—Spray Test
To produce a suitable preparation of active compound, 1 part by weight of active compound is mixed with the stated amount of solvent, and the concentrate is diluted with water, containing an emulsifier concentration of 1000 ppm, to the desired concentration. Further test concentrations are prepared by dilution with emulsifier containing water.
Soaked wheat seeds (Triticum aestivum) are placed in a multiple well plate filled with agar and some water and are incubated for 1 day to germinate (5 seeds per well). The germinated wheat seeds are sprayed with a test solution containing the desired concentration of the active ingredient. Afterwards each unit is infected with 10-20 larvae of the banded cucumber beetle (Diabrotica balteata).
After 7 days efficacy in % is determined. 100% means all the seedlings have grown up like in the untreated, uninfected control; 0% means none of the seedlings have grown.

Assay [3] deals with Rhipicephalus (Boophilus) microplus larvae (strain Parkhurst, resistant against synthetic pyrethroids). In words: Rhipicephalus (Boophilus) microplus in-vitro contact test, larval cattle tick. Particulars: after 48 hours, read-out: activity (efficacy: larvae dead or moribund); for pest or weed control at 1 µg/cm2, 100 g/ha: application rate 1 μg/cm^2 (=100 g/ha); for pest or weed control at 5 µg/cm2, 500 g/ha: application rate 5 μg/cm^2 (=500 g/ha). How it is done:
Rhipicephalus (Boophilus) microplus—In-Vitro Contact Tests Larval Cattle Tick (Strain Parkhurst, Resistant Against Synthetic Pyrethroids)
9 mg compound is solved in 1 ml acetone and diluted with acetone to the desired concentration. 250 μL of the test solution is filled in 25 mL glass test tubes and homogeneously distributed on the inner walls by rotation and tilting on a shaking device (2 h at 30 rpm). With a compound concentration of 900 ppm, an inner surface of 44.7 cm^2 and a homogeneous distribution, a dose of 5 μg/cm^2 is achieved.
After the solvent has evaporated, each test tube is filled with 20-50 cattle tick larvae (Rhipicephalus microplus), closed with a perforated lid and incubated in a horizontal position at 85% relative humidity and 27° C. in an incubator. After 48 hours efficacy is determined. The larvae are patted on the ground of the tubes and negative geotactic behavior is recorded.
An efficacy of 100% means all larvae are dead or moribund; 0% means no larvae are dead or moribund.

In assay [4] the test system is fall armyworm larvae (Spodoptera frugiperda). In words: Spodoptera frugiperda spray test. Particulars: 168 h, application rate 100 g/ha, after 7 days, maize leaf sections. How it is done: Spodoptera frugiperda—Spray Test
To produce a suitable preparation of active compound, 1 part by weight of active compound is mixed with the stated amount of solvents and is diluted with water, containing an emulsifier concentration of 1000 ppm, to the desired concentration. Further test concentrations are prepared by dilution with emulsifier containing water.
Maize (Zea mays) leaf sections are sprayed with a preparation of the active ingredient of the desired concentration. Once dry, the leaf sections are infested with fall armyworm larvae (Spodoptera frugiperda).
After 7 days mortality in % is determined. 100% means all caterpillars have been killed and 0% means none of the caterpillars have been killed.

As a reminder, the mortality is the percentage killed. Consider `Cc1nc([C@H](C)NC(=O)c2cc(Cl)cc(C(F)(F)F)c2)n(-c2ccc(C(=O)N3CC(O)C3)cn2)n1` [Example I-21], for which the mortality at 4 ppm in assay [1] came out at 100%.

As for `C[C@H](NC(=O)c1cc(Cl)cc(C(F)(F)F)c1)c1ncnn1-c1ccc(C(=O)N2[C@@H](C)CCC[C@@H]2C)cn1` [Example I-39], the pest or weed control at 160 µg/disc, 500 g/ha in assay [2] is 100%.

Regarding `C[C@H](NC(=O)c1cc(C(F)(F)F)cc(C(F)(F)F)c1)c1ncnn1-c1ccc(N2CCOCC2)cn1` [Example I-44, N-[(1S)-1-{1-[5-(morpholin-4-yl)pyridin-2-yl]-1H-1,2,4-triazol-5-yl}ethyl]-3,5-bis(trifluoromethyl)benzamide], in assay [3], the pest or weed control at 1 µg/cm2, 100 g/ha was 100% and the pest or weed control at 5 µg/cm2, 500 g/ha is 100%. The pest or weed control at 32 µg/disc, 100 g/ha in assay [2] is 100%. Moreover, the mortality at 100 g/ha in assay [4] stood at 100%.

Consider `C[C@H](NC(=O)c1cc(Cl)cc(C(F)(F)F)c1)c1ncnn1-c1ccc(N2CCCCC2=O)cn1` [Example I-57], for which the mortality at 4 ppm in assay [1] was found to be 90%.

As to `CC(NC(=O)c1cc(F)cc(C#N)c1)c1nc(C(F)F)nn1-c1ccc(C(=O)N2CCOCC2)cn1` (centres unmarked) [Example I-60], in assay [2], the pest or weed control at 32 µg/disc, 100 g/ha was found to be 100% and the pest or weed control at 160 µg/disc, 500 g/ha was determined as 100%.

Consider `C[C@H](NC(=O)c1cc(C(F)(F)F)cc(C(F)(F)F)c1)c1ncnn1-c1ccc(C(=O)NC2CC(C)(C)OC(C)(C)C2)cn1` [Example I-64], for which, in assay [3], the pest or weed control at 1 µg/cm2, 100 g/ha turned out to be 90% and the pest or weed control at 5 µg/cm2, 500 g/ha is 80%. Besides, in assay [2], the pest or weed control at 32 µg/disc, 100 g/ha was 100%.

For `CC1CCN(C(=O)c2ccc(-n3ncnc3[C@H](C)NC(=O)c3cc(C(F)(F)F)cc(C(F)(F)F)c3)nc2)CC1` [Example I-73], in assay [3], the pest or weed control at 1 µg/cm2, 100 g/ha turned out to be 100% and the pest or weed control at 5 µg/cm2, 500 g/ha was 100%. In assay [2], the pest or weed control at 32 µg/disc, 100 g/ha is 100%.

For `Cc1nc([C@H](C)NC(=O)c2cc(C(F)(F)F)cc(C(F)(F)F)c2)n(-c2ccc(C(=O)N3CCC(C)CC3)cn2)n1` [Example I-74], in assay [3], the pest or weed control at 1 µg/cm2, 100 g/ha is 90% and the pest or weed control at 5 µg/cm2, 500 g/ha was found to be 90%. In addition, in assay [2], the pest or weed control at 32 µg/disc, 100 g/ha turned out to be 100%.

Regarding `CC(NC(=O)c1cc(Br)cc(Br)c1)c1nc(Br)nn1-c1ccc(C(=O)N2CCOCC2)cn1` (centres unmarked) [Example I-85], in assay [3], the pest or weed control at 1 µg/cm2, 100 g/ha was 100% and the pest or weed control at 5 µg/cm2, 500 g/ha came to 100%.

Turning to `C[C@@H]1CN(C(=O)c2ccc(-n3nc(C4CC4)nc3[C@H](C)NC(=O)c3cc(Cl)cc(S(=O)(=O)C4CC4)c3)nc2)C[C@H](C)O1` [Example I-91], the pest or weed control at 32 µg/disc, 100 g/ha in assay [2] was found to be 100%. For the same compound, the mortality at 100 g/ha in assay [4] stood at 100%.

`C[C@H](NC(=O)c1cc(Cl)cc(S(C)(=O)=O)c1)c1ncnn1-c1ccc(C(=O)N2CCS(=O)(=O)CC2)cn1` [Example I-96]: the mortality at 4 ppm in assay [1] was determined as 100%.

On to `CON(C)C(=O)c1cnc(-n2nc(C)nc2[C@H](C)NC(=O)c2cc(C(F)(F)F)cc(C(F)(F)F)c2)s1` [Example I-97], for which, in assay [3], the pest or weed control at 1 µg/cm2, 100 g/ha came out at 100% and the pest or weed control at 5 µg/cm2, 500 g/ha is 100%. Moreover, in assay [2], the pest or weed control at 32 µg/disc, 100 g/ha amounted to 100%. Moreover, the mortality at 4 ppm in assay [1] amounted to 100%.

Turning to `C[C@H](NC(=O)c1cc(Br)cc(Br)c1)c1ncnn1-c1ccc(N2CCOCC2)cn1` [Example I-103], in assay [3], the pest or weed control at 1 µg/cm2, 100 g/ha is 90% and the pest or weed control at 5 µg/cm2, 500 g/ha was 100%. In addition, the pest or weed control at 32 µg/disc, 100 g/ha in assay [2] was found to be 100%.

In the case of `C[C@H](NC(=O)c1cc(Cl)cc(S(=O)(=O)C(F)(F)F)c1)c1ncnn1-c1ccc(N2CCOCC2)cn1` [Example I-105], in assay [3], the pest or weed control at 1 µg/cm2, 100 g/ha is 100% and the pest or weed control at 5 µg/cm2, 500 g/ha was 100%. For the same compound, the pest or weed control at 32 µg/disc, 100 g/ha in assay [2] came out at 100%. This compound displayed a mortality at 100 g/ha in assay [4] of 83%.

As for `C[C@H](NC(=O)c1cc(C(F)(F)F)cc(C(F)(F)F)c1)c1ncnn1-c1ccc(C(=O)NC2CCOCC2)cn1` [Example I-111], in assay [3], the pest or weed control at 1 µg/cm2, 100 g/ha is 100% and the pest or weed control at 5 µg/cm2, 500 g/ha was 100%. The mortality at 4 ppm in assay [1] was found to be 90%.

In the case of `C[C@H](NC(=O)c1cc(C(F)(F)F)cc(C(F)(F)F)c1)c1ncnn1-c1ccc(C(=O)NC2CCSCC2)cn1` [Example I-113], in assay [3], the pest or weed control at 1 µg/cm2, 100 g/ha was 100% and the pest or weed control at 5 µg/cm2, 500 g/ha is 100%. Besides, the mortality at 4 ppm in assay [1] stood at 100%.

For `C[C@H](NC(=O)c1cc(Cl)cc(S(C)(=O)=O)c1)c1ncnn1-c1ccc(C(=O)N2CCOCC2)cn1` [Example I-119], the mortality at 4 ppm in assay [1] was 100%.

`C[C@H](NC(=O)c1cc(Cl)cc(C(F)(F)F)c1)c1ncnn1-c1ccc(S(=O)(=O)N2CCOCC2)cn1` [Example I-123]: in assay [3], the pest or weed control at 1 µg/cm2, 100 g/ha was determined as 100% and the pest or weed control at 5 µg/cm2, 500 g/ha turned out to be 100%. In assay [2], the pest or weed control at 32 µg/disc, 100 g/ha was 80%.

With `C[C@H](NC(=O)c1cc(OC(F)(F)F)cc(C2CC2)c1)c1ncnn1-c1ccc(S(=O)(=O)N2CCOCC2)cn1` [Example I-125], in assay [3], the pest or weed control at 1 µg/cm2, 100 g/ha amounted to 100% and the pest or weed control at 5 µg/cm2, 500 g/ha came out at 100%. Besides, in assay [2], the pest or weed control at 32 µg/disc, 100 g/ha was found to be 100% and the pest or weed control at 160 µg/disc, 500 g/ha was 100%.

Turning to `C[C@H](NC(=O)c1cc(C(F)(F)F)cc(C(F)(F)F)c1)c1ncnn1-c1ccc(S(=O)(=O)N2CCOCC2)cn1` [Example I-127, N-[(1S)-1-{1-[5-(morpholin-4-ylsulfonyl)pyridin-2-yl]-1H-1,2,4-triazol-5-yl}ethyl]-3,5-bis(trifluoromethyl)benzamide], in assay [3], the pest or weed control at 1 µg/cm2, 100 g/ha was determined as 100% and the pest or weed control at 5 µg/cm2, 500 g/ha is 100%.

As to `C[C@H](NC(=O)c1cc(C(F)(F)F)cc(C(F)(F)F)c1)c1ncnn1-c1ccc(N2CCOCC2=O)cn1` [Example I-128, N-[(1S)-1-{1-[5-(3-oxomorpholin-4-yl)pyridin-2-yl]-1H-1,2,4-triazol-5-yl}ethyl]-3,5-bis(trifluoromethyl)benzamide], in assay [3], the pest or weed control at 1 µg/cm2, 100 g/ha is 100% and the pest or weed control at 5 µg/cm2, 500 g/ha worked out at 100%. In addition, in assay [1], the mortality at 4 ppm worked out at 100%.

In turn, `Cc1nc([C@H](C)NC(=O)c2cc(OC(F)(F)F)cc(C3CC3)c2)n(-c2ncc(C(=O)N3CCOCC3)s2)n1` [Example I-137] came in with a mortality at 100 g/ha in assay [4] of 100%.

For the compound `C[C@@H]1CN(C(=O)c2cnc(-n3ncnc3[C@H](C)NC(=O)c3cc(OC(F)(F)F)cc(S(C)(=O)=O)c3)cn2)C[C@H](C)O1` [Example I-142], the mortality at 100 g/ha in assay [4] was determined as 100%.

As to `C[C@H](NC(=O)c1cc(C(F)(F)F)cc(C(F)(F)F)c1)c1ncnn1-c1cnc(C(=O)N2CCCC2)cn1` [Example I-144], the pest or weed control at 32 µg/disc, 100 g/ha in assay [2] stood at 100%. Besides, in assay [4], the mortality at 100 g/ha turned out to be 100%.

Take `C[C@@H]1CN(C(=O)c2cnc(-n3ncnc3[C@H](C)NC(=O)c3cc(C(F)(F)F)cc(C(F)(F)F)c3)nc2)C[C@H](C)O1` [Example I-146]: the pest or weed control at 32 µg/disc, 100 g/ha in assay [2] turned out to be 100%. In assay [4], this compound gave a mortality at 100 g/ha of 100%.
